Assay results as given in patent US9695155B2, “Herbicidal substituted pyrimidinyloxy benzene compounds” (E. I. DU PONT DE NEMOURS AND COMPANY, priority 2013, dated 2017).

Legend:
johnsongrass = assay: Test C postemergence; type: in vivo, Sorghum halepense; details: for Johnsongrass plant response rating / Plant response rating, Johnsongrass: scale 0 to 100 (0 no effect, 100 complete control)
Summary of the method: (§1)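 Injury was assessed visually against controls 13 to 15 days after application, with 0 meaning no effect and 100 full control; missing entries are shown as a dash. Preemergence sprays hit seeded loam–sand soil, postemergence sprays hit 1- to 4-leaf plants.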

waterhemp = assay: Test C postemergence; type: in vivo, Amaranthus rudis
Summary of the method: as §1

large (Lg) crabgrass [1] = assay: Test A preemergence; type: in vivo, Digitaria sanguinalis; details: for Plant response rating, Crabgrass, Large: 125 g ai/ha; for Crabgrass, Large plant response rating: 500 g ai/ha
Summary of the method: (§2)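 Injury scores run from 0, no effect, to 100, complete control, judged by eye against untreated plants roughly 10 days after treatment. Chemicals carried a surfactant in a non-phytotoxic solvent and went onto loam–sand soil preemergence or onto one- to two-leaf seedlings postemergence.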

velvetleaf = assay: Test A preemergence; type: in vivo, Abutilon theophrasti
Summary of the method: as §2

corn = assay: Test C postemergence; type: in vivo, Zea mays; details: for Corn plant response rating / Plant response rating, Corn: scale 0 to 100 (0 no effect, 100 complete control)
Summary of the method: as §1

giant foxtail [2] = assay: Test C postemergence; type: in vivo, Setaria faberii; details: for Foxtail, Giant plant response rating / Plant response rating, Foxtail, Giant: scale 0 to 100 (0 no effect, 100 complete control)
Summary of the method: as §1

yellow nutsedge = assay: Test C postemergence; type: in vivo, Cyperus esculentus
Summary of the method: as §1

morningglory [3] = assay: Test A postemergence; type: in vivo, Ipomoea spp.; details: 0 to 100 scale where 0 is no effect and 100 is complete control; for Plant response rating, Morningglory: 500 g ai/ha
Summary of the method: as §2

blackgrass = assay: Test C postemergence; type: in vivo, Alopecurus myosuroides; details: for Blackgrass plant response rating / Plant response rating, Blackgrass: scale 0 to 100 (0 no effect, 100 complete control)
Summary of the method: as §1

large (Lg) crabgrass [4] = assay: Test C postemergence; type: in vivo, Digitaria sanguinalis; details: for Crabgrass, Large plant response rating / Plant response rating, Crabgrass, Large: scale 0 to 100 (0 no effect, 100 complete control)
Summary of the method: as §1

wild oat = assay: Test C postemergence; type: in vivo, Avena fatua
Summary of the method: as §1

Italian ryegrass = assay: Test C postemergence; type: in vivo, Lolium multiflorum
Summary of the method: as §1

morningglory [5] = assay: Test A preemergence; type: in vivo, Ipomoea spp.; details: for Morningglory plant response rating: 500 g ai/ha
Summary of the method: as §2

giant foxtail [6] = assay: Test A preemergence; type: in vivo, Setaria faberii; details: for Plant response rating, Foxtail, Giant: 125 g ai/ha; for Foxtail, Giant plant response rating: 500 g ai/ha
Summary of the method: as §2

chickweed = assay: Test C postemergence; type: in vivo, Stellaria media; details: for Chickweed plant response rating / Plant response rating, Chickweed: scale 0 to 100 (0 no effect, 100 complete control)
Summary of the method: as §1

[7] = 16 g ai/ha, postemergence, visual rating, 13 to 15 days
[8] = Postemergence, 31 g ai/ha, 13 to 15 days
[9] = Postemergence, 31 g ai/ha, scale 0 to 100 (0 no effect, 100 complete control), 13 to 15 days
[10] = Postemergence, 62 g ai/ha, scale 0 to 100 (0 no effect, 100 complete control)
[11] = 0 to 100 scale where 0 is no effect and 100 is complete control
[12] = 0 to 100 scale, 0 no effect, 100 complete control, approx. 10 days
[13] = 125 g ai/ha, 0 to 100 scale where 0 is no effect and 100 is complete control
[14] = 16 g ai/ha, postemergence, 0 is no effect, 100 is complete control
[15] = 31 g ai/ha, postemergence, visual rating, 13 to 15 days
[16] = 125 g ai/ha, postemergence, visual rating
[17] = 31 g ai/ha, postemergence, visual rating, scale 0 to 100 (0 no effect, 100 complete control), 13 to 15 days
[18] = 125 g ai/ha, postemergence, visual rating, scale 0 to 100 (0 no effect, 100 complete control)

FC(F)Oc1cnn(-c2ccccc2Oc2ncc(Cl)cn2)c1 [Compound 98]
25: Plant response rating (0 to 100), Ryegrass, Italian (Italian ryegrass; 125 g ai/ha, postemergence)
90: Plant response rating, Velvetleaf (velvetleaf; [13])
50: Plant response rating, Waterhemp (waterhemp; [9]) | Plant response rating, Chickweed (chickweed; [8])
5: Plant response rating, Johnsongrass (johnsongrass; Postemergence, 62 g ai/ha) | Corn plant response rating (corn; [7]) | Plant response rating, Corn (corn; Postemergence, 62 g ai/ha) | Foxtail, Giant plant response rating (giant foxtail [2]; [7]) | Plant response rating, Foxtail, Giant (giant foxtail [2]; [8]) | Plant response rating, Foxtail, Giant (giant foxtail [2]; Postemergence, 62 g ai/ha) | Plant response rating (0 to 100), Nutsedge, Yellow (yellow nutsedge; 125 g ai/ha, postemergence) | Plant response rating, Nutsedge, Yellow (yellow nutsedge; [10]) | Plant response rating, Blackgrass (blackgrass; [8]) | Crabgrass, Large plant response rating (large (Lg) crabgrass [4]; [7]) | Plant response rating (0 to 100), Crabgrass, Large (large (Lg) crabgrass [4]; 125 g ai/ha, postemergence) | Plant response rating, Crabgrass, Large (large (Lg) crabgrass [4]; [8]) | Plant response rating, Crabgrass, Large (large (Lg) crabgrass [4]; Postemergence, 62 g ai/ha) | Plant response rating, Oat, Wild (wild oat; [9]) | Plant response rating, Ryegrass, Italian (Italian ryegrass; [10])
60: Plant response rating, Morningglory (morningglory [5]; [13])
20: Plant response rating (0 to 100), Corn (corn; 125 g ai/ha, postemergence) | Plant response rating (0 to 100), Blackgrass (blackgrass; 125 g ai/ha, postemergence) | Plant response rating (0 to 100), Oat, Wild (wild oat; 125 g ai/ha, postemergence)
10: Plant response rating (0 to 100), Johnsongrass (johnsongrass; 125 g ai/ha, postemergence) | Plant response rating, Corn (corn; [8]) | Plant response rating (0 to 100), Foxtail, Giant (giant foxtail [2]; 125 g ai/ha, postemergence) | Plant response rating, Nutsedge, Yellow (yellow nutsedge; [9]) | Plant response rating, Oat, Wild (wild oat; [10])
30: Plant response rating, Blackgrass (blackgrass; Postemergence, 62 g ai/ha) | Chickweed plant response rating (chickweed; [7])
80: Plant response rating, Waterhemp (waterhemp; [10]) | Morningglory plant response rating (morningglory [5]; [12])
100: Plant response rating, Crabgrass, Large (large (Lg) crabgrass [1]; [11]) | Crabgrass, Large plant response rating (large (Lg) crabgrass [1]; [12]) | Plant response rating, Morningglory (morningglory [3]) | Plant response rating, Foxtail, Giant (giant foxtail [6]; [11]) | Foxtail, Giant plant response rating (giant foxtail [6]; [12])
75: Plant response rating, Chickweed (chickweed; Postemergence, 62 g ai/ha)
0: Johnsongrass plant response rating (johnsongrass; [7]) | Plant response rating, Johnsongrass (johnsongrass; [8]) | Blackgrass plant response rating (blackgrass; [7]) | Plant response rating, Ryegrass, Italian (Italian ryegrass; [9])
85: Plant response rating (0 to 100), Waterhemp (waterhemp; 125 g ai/ha, postemergence) | Plant response rating (0 to 100), Chickweed (chickweed; 125 g ai/ha, postemergence)

FC(F)c1cccc(Oc2ncc(Br)cn2)c1-n1cc(C(F)(F)F)cn1 [Compound 163]
0: Plant response rating (0 to 100), Blackgrass (blackgrass; [14]) | Plant response rating (0 to 100), Oat, Wild (wild oat; [14]) | Plant response rating (0 to 100), Ryegrass, Italian (Italian ryegrass; [14]) | Ryegrass, Italian plant response rating (Italian ryegrass; [17]) | Plant response rating, Ryegrass, Italian (Italian ryegrass; [10]) | Morningglory plant response rating (0 to 100 scale) (morningglory [5]; 125 g ai/ha)
80: Plant response rating, Waterhemp (waterhemp; [18]) | Chickweed plant response rating (chickweed; [15]) | Plant response rating, Chickweed (chickweed; Postemergence, 62 g ai/ha)
90: Morningglory plant response rating (morningglory [3]; 125 g ai/ha)
5: Plant response rating (0 to 100), Johnsongrass (johnsongrass; [14]) | Johnsongrass plant response rating (johnsongrass; [15]) | Plant response rating, Johnsongrass (johnsongrass; Postemergence, 62 g ai/ha) | Plant response rating (0 to 100), Corn (corn; [14]) | Corn plant response rating (corn; [15]) | Plant response rating (0 to 100), Foxtail, Giant (giant foxtail [2]; [14]) | Foxtail, Giant plant response rating (giant foxtail [2]; [15]) | Plant response rating (0 to 100), Nutsedge, Yellow (yellow nutsedge; [14]) | Nutsedge, Yellow plant response rating (yellow nutsedge; [17]) | Plant response rating, Nutsedge, Yellow (yellow nutsedge; [18]) | Plant response rating, Nutsedge, Yellow (yellow nutsedge; [10]) | Blackgrass plant response rating (blackgrass; [15]) | Plant response rating, Blackgrass (blackgrass; Postemergence, 62 g ai/ha) | Plant response rating (0 to 100), Crabgrass, Large (large (Lg) crabgrass [4]; [14]) | Crabgrass, Large plant response rating (large (Lg) crabgrass [4]; [15]) | Oat, Wild plant response rating (wild oat; [17])
20: Velvetleaf plant response rating (0 to 100 scale) (velvetleaf; 125 g ai/ha) | Plant response rating, Oat, Wild (wild oat; [18])
85: Plant response rating, Waterhemp (waterhemp; [10])
10: Plant response rating, Johnsongrass (johnsongrass; [16]) | Plant response rating, Corn (corn; [16]) | Plant response rating, Corn (corn; Postemergence, 62 g ai/ha) | Plant response rating, Foxtail, Giant (giant foxtail [2]; [16]) | Plant response rating, Foxtail, Giant (giant foxtail [2]; Postemergence, 62 g ai/ha) | Plant response rating, Crabgrass, Large (large (Lg) crabgrass [4]; [16]) | Plant response rating, Crabgrass, Large (large (Lg) crabgrass [4]; Postemergence, 62 g ai/ha) | Plant response rating, Oat, Wild (wild oat; [10]) | Plant response rating, Ryegrass, Italian (Italian ryegrass; [18])
40: Plant response rating (0 to 100), Chickweed (chickweed; [14])
100: Plant response rating, Crabgrass, Large (large (Lg) crabgrass [1]; [11]) | Crabgrass, Large plant response rating (large (Lg) crabgrass [1]; [11]) | Velvetleaf plant response rating (velvetleaf; 500 g ai/ha, 0 to 100 scale where 0 is no effect and 100 is complete control) | Plant response rating, Morningglory (morningglory [3]) | Plant response rating, Foxtail, Giant (giant foxtail [6]; [11]) | Foxtail, Giant plant response rating (giant foxtail [6]; [11])
95: Plant response rating, Chickweed (chickweed; [16])
70: Morningglory plant response rating (morningglory [5]; [11])
75: Plant response rating (0 to 100), Waterhemp (waterhemp; [14]) | Waterhemp plant response rating (waterhemp; [17])
15: Plant response rating, Blackgrass (blackgrass; [16])
